“Also recorded” adds a separate entry of the source. Like-named read-outs stand apart in the source and are kept apart here. One block for each compound: values may come before it.
Experiments:
[1] = test system: colorectal cancer (CRC); assay: In vivo combination of PBR06 with Cetuximab in WT and mutant KRAS CRC cohorts; parameters: species or system mice
Text: This synergism is shown with both wild type (WT) and mutant KRAS colorectal cancer (CRC) cohorts (mice).

[2] = test system: DiFi human CRC cells; assay: Immunoblotting of markers in DiFi cells (WT KRAS) after 24 hr drug exposure; assay type: cell-based
Description: In these studies, cultured cells were exposed to drug for 24 hr, harvested, and the protein levels of various markers were assayed by immunoblotting.

[3] = test system: HCT116 p53−/− human CRC cells; assay: Immunoblotting of markers in HCT116 p53−/− cells (mutant KRAS) after 24 h drug exposure; assay type: cell-based
Description: In these studies, HCT116 p53−/− human CRC cells were exposed to drug for 24 h, harvested, and the protein levels of various markers were assayed by immunoblotting.

[4] = test system: LIM 2405 human CRC cells; assay: Immunoblotting of markers in LIM 2405 cells (mutant B-RAF) after 24 h drug exposure; assay type: cell-based
Description: In these studies, LIM 2405 human CRC cells were exposed to drug for 24 h, harvested, and the protein levels of various markers were assayed by immunoblotting.

[5] = molecular target: T1, TSPO (Rattus norvegicus, UniProt P16257); assay: Radioligand displacement of [3H]PK 11195 in C6 glioma cell / tumor lysate; assay type: binding; parameters: from tissue; host or cells: C6 glioma tumour and normal brain / other tissues of living rats; settings: for binding affinity: whole tumor lysate; for binding affinity (in words): tumor lysate / C6 cell lysate
Description: Given our focus of targeting TSPO expressed in tumors, affinity assays will be conducted in whole and fractionated tumor lysate.
In this Example Glioma-bearing rats were imaged with [^18F]PBR06 in a microPET system. Dynamic acquisitions were acquired simultaneously upon injection of 70-100 MBq/0.2 mL [^18F]PBR06. Over the course of scanning, arterial blood was collected to derive the input function, with HPLC radiometabolite analysis performed on selected samples for arterial input function correction. Compartmental modeling of the PET data was performed using the corrected arterial input function. Specific tumor cell binding of PBR06 was evaluated by radioligand displacement of [^3H]PK 11195 with PBR06 in vitro and by displacement of [^18F]PBR06 with excess PBR06 in vivo. Immediately following imaging, tumor tissue and adjacent healthy brain were harvested for assay of TSPO protein levels by western blotting and immunohistochemistry.
Radioligand displacement of the high-affinity isoquinoline carboxamide TSPO ligand [^3H]PK 11195 was used to evaluate the specific binding of the non-radioactive analogue PBR06 in C6 glioma cell line homogenates in vitro (FIG. 10). […]

[6] = molecular target: T1, TSPO; assay: Compartmental binding assay in heavy and light fractions of C6 cell lysate; parameters: from tissue; host or cells: C6 glioma tumour and normal brain / other tissues of living rats
Text: In order to fully characterize TSPO expression profile in the healthy tissues and C6 cells, this example includes subcellular studies. The present inventors separated two fractions of tissue and C6 cell lysates based on the density difference. […] Based on these two fractions, we performed western blot to determine TSPO expression profile in a variety of healthy tissues and C6 cell lysates. […] Thus, we evaluated the binding potential of VUIIS1008 in different fractions.

[7] = test system: nuclear TSPO; assay: Fractional (nuclear) displacement assay against [3H]PK 11195; settings: fractional nuclear binding assay, displacement of [3H]PK 11195
Description: The characterization strategy can begin with a high-throughput fractional displacement assay developed in our laboratory (FIG. 8). This assay capitalizes upon the fact that PK 11195 binds nuclear and mitochondrial TSPO. Fractionated tumor lysate material containing an equivalent distribution of nuclear and mitochondrial TSPO (32) is incubated with [^3H]PK 11195 and candidate ligands. After incubation, protein is collected by centrifugation and microspotted in triplicate into high-density arrays (˜1 uL). The resultant radioligand displacement of each assay is quantified using a high-resolution digital autoradiography imaging system (BiospaceLab).

[8] = molecular target: T1, TSPO; assay: Dynamic microPET of [18F]VUIIS-1008 in C6 glioma-bearing rats, with compartmental modeling and in vivo displacement; parameters: from tissue; host or cells: C6 glioma tumour and normal brain / other tissues of living rats; settings: for VT (calculated): mean ± SE; for tracer distribution tumor vs normal brain (in words): C6 glioma
Description: Dynamic microPET imaging can be performed as in tumor-bearing and non-tumor-bearing rats. […] […] For displacement studies, ‘cold’ analog (10 mg/kg) are injected via jugular catheter 30 min after radiotracer administration. Prior to PET scanning, tumors are localized in tumor-bearing rats using MRI, including T2-weighted and diffusion-weighted scans. For longitudinal studies, tumor volumes are measured using a three-dimensional, T2-weighted fast spin-echo sequence on a Varian 9.4 T horizontal bore imaging system.
A 3-compartment, 4-rate constant kinetic model can be used to characterize [^18F]PBR06 pharmacokinetics. […] These rate constants can be used to calculate the total volume of distribution (VT) in tissues of interest. Modeling will be carried out for whole brain (excluding tumor) and tumor by fitting time-activity curves (TACs) of each region.
Before PET imaging with ^18F-VUIIS1008, brain tumors were localized with T2-weighted MRI. […] After the initial spike in radioactivity consistent with tracer injection, ^18F-VUIIS1008 rapidly cleared from the plasma. Imaging-matched brains were processed for staining and immunohistochemistry. Using standard hematoxylin and eosin staining to localize the tumor, the present inventors discovered that TSPO expression was significant higher in tumor than in the adjacent healthy brain.
In order to fully evaluate the novel performance of ^18F-VUIIS1008, we have also determined ^18F-VUIIS 1008 pharmacodynamics with arterial input function.

[9] = molecular target: T1, TSPO; assay: In vivo PET evaluation of [18F]VUIIS-0005 in C6 glioma; parameters: from tissue; host or cells: C6 glioma tumour and normal brain / other tissues of living rats
Description: Dynamic microPET imaging can be performed as in tumor-bearing and non-tumor-bearing rats. […] Dynamic images (120 min) are collected, followed by CT for attenuation correction and cross-platform registration. For displacement studies, ‘cold’ analog (10 mg/kg) are injected via jugular catheter 30 min after radiotracer administration. Prior to PET scanning, tumors are localized in tumor-bearing rats using MRI, including T2-weighted and diffusion-weighted scans. For longitudinal studies, tumor volumes are measured using a three-dimensional, T2-weighted fast spin-echo sequence on a Varian 9.4 T horizontal bore imaging system.

[10] = molecular target: T2, TSPO (Mus musculus, UniProt P50637); assay: TSPO-PET with 18F-VUIIS1008 in Lrig1-CreERT2;Apcfl/+ mouse model of colorectal cancer; assay type: in vivo
T2 construct: from tissue; host or cells: colon tumours (Lrig1-CreERT2;Apcfl/+ mice) and pancreatic tumours (Ptf1a-cre;LSL-KrasG12D;Tgfbr2fl/fl mice) in living mice
Description: All studies were conducted in accordance with federal and institutional guidelines. Lrig1-CreERT2/+mice (35) were crossed to Apcfl/+mice to generate Lrig1-CreERT2/+; Apcfl/+mice. Six to eight week old mice were injected with 2 mg tamoxifen (Sigma Aldrich) intraperitoneally for three consecutive days to induce tumor formation. Mice were imaged approximately 100 days after injection of tamoxifen and then sacrificed
Colonoscopy (KARL STORZ-SCB Endoscope System) was performed monthly beginning two months after tamoxifen induction. Mice are anesthetized and immobilized using 2% isofluorane anesthesia in 100% oxygen at 2 L/min. Tumor formation within a single mouse was tracked over time. Upon visual detection of distal colon tumors mice were designated for PET imaging.
PET imaging was performed using a dedicated small animal PET scanner (Concorde Microsystems Focus 220) as described. Briefly, mice were maintained under 2% isofluorane anesthesia in 100% oxygen at 2 L/min and kept warm via a circulating water heating pad during the PET scan. Animals were administered 7.4-9.3 MBq of [^18F]-VUIIS1008 intravenously and allowed free access to food and water during a 50 minute uptake period and a 20 minute PET acquisition. Scans were reconstructed using OSEM3D/MAP.

[11] = PBR06 single agent, increasing concentrations, 24 h
[12] = C6 glioma cell lysate / tumor lysate, read-out: IC50, displacement of [3H]PK 11195
[13] = 1-tissue model, tumor, mean (SE in next line)

Compound: COc1ccc(OC)c(CN(C(=O)CF)c2ccccc2Oc2ccccc2)c1 [PBR06]
effect in combination with Cetuximab (in words) ([1]; WT and mutant KRAS CRC cohorts (mice)): in vivo synergistic effect
tolerability (in words) ([1]; mice): well tolerated among the test subjects
p27 levels (cell cycle arrest) ([2]; PBR06 single agent 10 nM, 24 hr): significantly elevated p27
pERK levels ([2]; PBR06 single agent, increasing concentrations 10 nM-10 uM, 24 hr): modestly elevated levels of pERK
enhancement in the efficacy of C225 by combination with TSPO ligand ([2]; WT KRAS CRC cell line): approximately 10 fold
p27 levels (cell cycle arrest) ([2]; lowest dosage of C225 (+) combined with all dosages of PBR06): significantly elevated levels of p27 could be achieved
cleaved caspase 3 (apoptosis) ([3]; C225 combined with all but the lowest concentration of PBR06): significant levels of cleaved caspase 3 were induced
pERK levels ([3]; PBR06 in combination with elevated concentrations of C225): pERK could be fully inhibited at elevated concentrations of C225 with PBR06
pERK levels [3, 11]: modestly elevated levels of pERK
p27 levels (cell cycle arrest) ([3]; lowest concentration of C225 combined with PBR06 at all concentrations): resulted in elevated p27
p21 induction ([4]; PBR06 in combination with C225, even the lowest dosages of C225): significant induction of p21
pERK levels [4, 11]: elevated levels of pERK
IC50 [5]: ~12.6 nM
IC50 [5, 12]: 12 nM
binding affinity [5]: ~12 nM
binding affinity in heavy (nuclei) and light (mitochondria) fractions (in words) [6]: bind to the light fraction selectively with a high binding affinity

fold higher binding affinity compared with DPA-714 and PBR06 ([5]; C6 cell lysate, against [3H]PK11195): 30 fold
IC50 [5, 12]: ~1 nM
IC50 fold lower than PBR06 or DPA-714 ([5]; against 3H-PK 11195 in tumor lysate): approximately 10 fold
binding affinity (in words) ([5]; listed as VUIIS1008): sub-nanomolar binding affinity
k6 ([8]; 3-tissue model, tumor, mean, listed as VUIIS1008): near-zero K6 in the tumor
Compound: CCc1cc(CC)n2nc(-c3ccc(OCCF)cc3)c(CC(=O)N(CC)CC)c2n1 [VUIIS-1008]
affinity for nuclear TSPO (in words) [7]: nanomolar binding affinity; also recorded: targets nuclear TSPO
binding affinity in heavy (nuclei) and light (mitochondria) fractions (in words) [6]: comparable high binding affinity of VUIIS1008 in both two fractions

Compound: COc1ccc(OC)c(CN(C(=O)CF)c2ccccc2Sc2ccccc2)c1 [[^18F]VUIIS-0005]
binding affinity (in words) [5]: improved binding affinity in tumor lysate compared to PBR06 or DPA-714
in vivo uptake distribution (in words) [9]: primarily confined to tumor tissue, with significantly less normal brain uptake compared to ^18F-PBR06

tracer uptake in colon (in words) ([10]; wild type mice): low tracer uptake in the colon
binding affinity [5]: ~1 nM
K1 ([8]; 1-tissue model, brain, mean): 0.3161 mL/g/min
k2 ([8]; 1-tissue model, brain, mean): 0.3048 min⁻¹
VT (calculated) ([8]; 1-tissue model, brain): 1.3 ± 0.2
K1 [8, 13]: 0.3535 mL/g/min
k2 [8, 13]: 0.0964 min⁻¹
VT (calculated) ([8]; 1-tissue model, tumor): 3.6 ± 0.6
K1 ([8]; 2-tissue model, brain, mean): 0.5856 mL/g/min
k2 ([8]; 2-tissue model, brain, mean): 2.0217 min⁻¹
k3 ([8]; 2-tissue model, brain, mean): 0.2903 min⁻¹
k4 ([8]; 2-tissue model, brain, mean): 0.0912 min⁻¹
VT (calculated) ([8]; 2-tissue model, brain): 1.7 ± 0.4
K1 ([8]; 2-tissue model, tumor, mean): 0.5448 mL/g/min
k2 ([8]; 2-tissue model, tumor, mean): 1.2413 min⁻¹
k3 ([8]; 2-tissue model, tumor, mean): 0.1300 min⁻¹
k4 ([8]; 2-tissue model, tumor, mean): 0.0234 min⁻¹
VT (calculated) ([8]; 2-tissue model, tumor): 4.6 ± 0.8
K1 ([8]; 3-tissue model, brain, mean): 0.6925 mL/g/min
k2 ([8]; 3-tissue model, brain, mean): 3.7619 min⁻¹
k3 ([8]; 3-tissue model, brain, mean): 0.8194 min⁻¹
k4 ([8]; 3-tissue model, brain, mean): 0.2569 min⁻¹
k5 ([8]; 3-tissue model, brain, mean): 0.5314 min⁻¹
k6 ([8]; 3-tissue model, brain, mean): 0.1748 min⁻¹
VT (calculated) ([8]; 3-tissue model, brain): 1.4 ± 0.2
K1 ([8]; 3-tissue model, tumor, mean): 0.6449 mL/g/min
k2 ([8]; 3-tissue model, tumor, mean): 2.9459 min⁻¹
k3 ([8]; 3-tissue model, tumor, mean): 0.4597 min⁻¹
k4 ([8]; 3-tissue model, tumor, mean): 0.1371 min⁻¹
k5 ([8]; 3-tissue model, tumor, mean): 0.2304 min⁻¹
VT (calculated) ([8]; 3-tissue model, tumor): 6.4 ± 1.8
k6 ([8]; 3-tissue model, tumor, mean, listed as [18F]VUIIS1008): 0.0574 min⁻¹
increase in tracer levels in plasma on displacement with 'cold' VUIIS-1008 ([8]; in vivo displacement): 25 fold
Compound: CCc1cc(CC)n2nc(-c3ccc(OCCF)cc3)c(CC(=O)N(CC)CC)c2n1 [[^18F]VUIIS-1008]
tracer uptake in distal colon (in words) ([10]; Lrig1-CreERT2;Apcfl/+ mice with colonoscopy confirmed tumors): increased, focal uptake in the distal colon compared to adjacent non-tumor tissue and wild type controls
binding affinity (in words) [5]: improved binding affinity in tumor lysate compared to PBR06 or DPA-714
stability in plasma, HPLC radiometabolite assay (in words) ([8]; 90 min dynamic PET scan): high stability of this probe in the 90 min dynamic PET scan
tracer distribution tumor vs normal brain (in words) [8]: robust tumor uptake, yet very little normal brain uptake
tracer distribution tumor vs normal brain (in words) ([8]; listed as 18F-VUIIS1008): most of the uptake in the brain was localized to the tumor, with only modest accumulation in the adjacent, normal brain
clearance and accumulation compared with 18F-DPA714 (in words) ([8]; glioma-bearing rats): a similar clearance and accumulation in brain, while a faster clearance and a slower accumulation in tumor
displacement from the tumor by 'cold' VUIIS-1008 (in words) ([8]; in vivo displacement): no detectable displacement from the tumor

— patent US9458161B1, “TSPO ligands for cancer imaging and treatment” (Vanderbilt University, priority 2011, dated 2016)
